# According to ChEMBL document CHEMBL4229379, “Synthesis and structure-activity relationship of novel bisindole amidines active against MDR Gram-positive and Gram-negative bacteria” (Eur J Med Chem, 2018):
# Columns and labels:
# [1] = tested on: Klebsiella pneumoniae; assay: Antibacterial activity against extended-spectrum beta-lactamase harboring Klebsiella pneumoniae ATCC 700603 after 18 hrs by CLSI broth microdilution method; assay type: functional; settings: Klebsiella pneumoniae, 700603, 18 h
# [2] = tested on: Klebsiella pneumoniae; assay: Antibacterial activity against extended-spectrum beta-lactamase deficient Klebsiella pneumoniae 7 after 18 hrs by CLSI broth microdilution method; assay type: functional; settings: Klebsiella pneumoniae, 7, 18 h
# [3] = tested on: Enterococcus faecalis; assay: Antibacterial activity against vancomycin-sensitive Enterococcus faecalis 12-5 after 18 hrs by CLSI broth microdilution method; assay type: functional; settings: 12-5, 18 h
# [4] = tested on: Staphylococcus aureus; assay: Antibacterial activity against methicillin-resistant Staphylococcus aureus 12-33 after 18 hrs by CLSI broth microdilution method; assay type: functional; settings: 12-33, 18 h
# [5] = tested on: Staphylococcus aureus; assay: Antibacterial activity against methicillin-sensitive Staphylococcus aureus ATCC 29213 after 18 hrs by CLSI broth microdilution method; assay type: functional; settings: ATCC 29213, 18 h
# [6] = tested on: Proteus mirabilis; assay: Antibacterial activity against Proteus mirabilis 12-6 after 18 hrs by CLSI broth microdilution method; assay type: functional; settings: 12-6, 18 h
# [7] = tested on: Acinetobacter calcoaceticus; assay: Antibacterial activity against Acinetobacter calcoaceticus ATCC 19606 after 18 hrs by CLSI broth microdilution method; assay type: functional; settings: ATCC 19606, 18 h
# [8] = tested on: Stenotrophomonas maltophilia; assay: Antibacterial activity against Stenotrophomonas maltophilia ATCC 13636 after 18 hrs by CLSI broth microdilution method; assay type: functional; settings: ATCC 13636, 18 h
# [9] = tested on: Staphylococcus epidermidis; assay: Antibacterial activity against methicillin-sensitive Staphylococcus epidermidis ATCC 12228 after 18 hrs by CLSI broth microdilution method; assay type: functional; settings: ATCC 12228, 18 h
# [10] = tested on: Pseudomonas aeruginosa; assay: Antibacterial activity against Pseudomonas aeruginosa PAO1 after 18 hrs by CLSI broth microdilution method; assay type: functional; settings: PAO1, 18 h
# [11] = tested on: Enterococcus faecalis; assay: Antibacterial activity against vancomycin-resistant Enterococcus faecalis 09-9 after 18 hrs by CLSI broth microdilution method; assay type: functional; settings: 09-9, 18 h
# [12] = tested on: Staphylococcus aureus; assay: Antibacterial activity against methicillin-resistant Staphylococcus aureus ATCC 33591 after 18 hrs by CLSI broth microdilution method; assay type: functional; settings: ATCC 33591, 18 h
# [13] = tested on: Staphylococcus aureus; assay: Antibacterial activity against methicillin-sensitive Staphylococcus aureus 15 after 18 hrs by CLSI broth microdilution method; assay type: functional; settings: Staphylococcus aureus, 15, 18 h
# [14] = tested on: Klebsiella pneumoniae; assay: Antibacterial activity against extended-spectrum beta-lactamase harboring Klebsiella pneumoniae 12-8 after 18 hrs by CLSI broth microdilution method; assay type: functional; settings: 12-8, 18 h
# [15] = tested on: Enterococcus faecium; assay: Antibacterial activity against vancomycin-resistant Enterococcus faecium ATCC 700221 after 18 hrs by CLSI broth microdilution method; assay type: functional; settings: ATCC 700221, 18 h
# [16] = tested on: Staphylococcus epidermidis; assay: Antibacterial activity against methicillin-sensitive Staphylococcus epidermidis 12-6 after 18 hrs by CLSI broth microdilution method; assay type: functional; settings: 12-6, 18 h
# [17] = tested on: Citrobacter freundii; assay: Antibacterial activity against Citrobacter freundii ATCC 43864 after 18 hrs by CLSI broth microdilution method; assay type: functional; settings: ATCC 43864, 18 h
# [18] = tested on: Providencia rettgeri; assay: Antibacterial activity against Providencia rettgeri ATCC 31052 after 18 hrs by CLSI broth microdilution method; assay type: functional; settings: ATCC 31052, 18 h
# [19] = tested on: Escherichia coli; assay: Antibacterial activity against extended-spectrum beta-lactamase deficient Escherichia coli ATCC 25922 after 18 hrs by CLSI broth microdilution method; assay type: functional; settings: ATCC 25922, 18 h
# [20] = tested on: Enterococcus faecium; assay: Antibacterial activity against vancomycin-resistant Enterococcus faecium 12-1 after 18 hrs by CLSI broth microdilution method; assay type: functional; settings: 12-1, 18 h
# [21] = tested on: Escherichia coli; assay: Antibacterial activity against extended-spectrum beta-lactamase deficient Escherichia coli 1515 after 18 hrs by CLSI broth microdilution method; assay type: functional; settings: Escherichia coli, 1515, 18 h
# [22] = tested on: Enterococcus faecium; assay: Antibacterial activity against vancomycin-sensitive Enterococcus faecium 12-3 after 18 hrs by CLSI broth microdilution method; assay type: functional; settings: 12-3, 18 h
# [23] = tested on: Proteus vulgaris; assay: Antibacterial activity against Proteus vulgaris ATCC 29905 after 18 hrs by CLSI broth microdilution method; assay type: functional; settings: ATCC 29905, 18 h
# [24] = tested on: Pseudomonas aeruginosa; assay: Antibacterial activity against Pseudomonas aeruginosa 12-16 after 18 hrs by CLSI broth microdilution method; assay type: functional; settings: 12-16, 18 h
# [25] = tested on: Klebsiella pneumoniae; assay: Antibacterial activity against extended-spectrum beta-lactamase deficient Klebsiella pneumoniae 12-4 after 18 hrs by CLSI broth microdilution method; assay type: functional; settings: 12-4, 18 h
# [26] = tested on: Staphylococcus aureus; assay: Antibacterial activity against methicillin-sensitive Staphylococcus aureus 12-28 after 18 hrs by CLSI broth microdilution method; assay type: functional; settings: 12-28, 18 h
# [27] = tested on: Klebsiella aerogenes; assay: Antibacterial activity against Enterobacter aerogenes ATCC 13048 after 18 hrs by CLSI broth microdilution method; assay type: functional; settings: ATCC 13048, 18 h
# [28] = tested on: Pseudomonas aeruginosa; assay: Antibacterial activity against Pseudomonas aeruginosa ATCC 27853 after 18 hrs by CLSI broth microdilution method; assay type: functional; settings: ATCC 27853, 18 h
# [29] = tested on: Staphylococcus epidermidis; assay: Antibacterial activity against methicillin-resistant Staphylococcus epidermidis 12-8 after 18 hrs by CLSI broth microdilution method; assay type: functional; settings: 12-8, 18 h
# [30] = tested on: Enterococcus faecalis; assay: Antibacterial activity against vancomycin-resistant Enterococcus faecalis ATCC 51299 after 18 hrs by CLSI broth microdilution method; assay type: functional; settings: ATCC 51299, 18 h
# [31] = tested on: Escherichia coli; assay: Antibacterial activity against extended-spectrum beta-lactamase harboring Escherichia coli 12-15 after 18 hrs by CLSI broth microdilution method; assay type: functional; settings: 12-15, 18 h
# [32] = tested on: Escherichia coli; assay: Antibacterial activity against extended-spectrum beta-lactamase deficient Escherichia coli 12-14 after 18 hrs by CLSI broth microdilution method; assay type: functional; settings: 12-14, 18 h
# [33] = tested on: Serratia marcescens; assay: Antibacterial activity against Serratia marcescens ATCC 21074 after 18 hrs by CLSI broth microdilution method; assay type: functional; settings: ATCC 21074, 18 h
# [34] = tested on: Klebsiella pneumoniae; assay: Antibacterial activity against new delhi metallo-beta-lactamase-1 harboring Klebsiella pneumoniae ATCC BAA-2146 after 18 hrs by CLSI broth microdilution method; assay type: functional; settings: ATCC BAA-2146, 18 h
# [35] = tested on: Enterococcus faecalis; assay: Antibacterial activity against vancomycin-sensitive Enterococcus faecalis ATCC 29212 after 18 hrs by CLSI broth microdilution method; assay type: functional; settings: ATCC 29212, 18 h
# [36] = tested on: Enterobacter cloacae; assay: Antibacterial activity against Enterobacter cloacae ATCC 43560 after 18 hrs by CLSI broth microdilution method; assay type: functional; settings: ATCC 43560, 18 h
# [37] = Cytotoxicity against HEK293T cells assessed as reduction in cell viability after 48 hrs by MTS assay; assay type: cell-based, HEK-293T; settings: human
SMILES,MIC [1] [µg/mL],MIC [2] [µg/mL],MIC [3] [µg/mL],MIC [4] [µg/mL],MIC [5] [µg/mL],MIC [6] [µg/mL],MIC [7] [µg/mL],MIC [8] [µg/mL],MIC [9] [µg/mL],MIC [10] [µg/mL],MIC [11] [µg/mL],MIC [12] [µg/mL],MIC [13] [µg/mL],MIC [14] [µg/mL],MIC [15] [µg/mL],MIC [16] [µg/mL],MIC [17] [µg/mL],MIC [18] [µg/mL],MIC [19] [µg/mL],MIC [20] [µg/mL],further results
CN(C)C(=N)c1ccc2cc(-c3ccc(Oc4ccc(-c5cc6ccc(C(=N)N(C)C)cc6[nH]5)cc4)cc3)[nH]c2c1,8,8,2,0.25,0.25,32,> 128,16,0.125,> 128,2,0.25,0.25,8,2,0.25,8,8,4,2,MIC [21]: 4 µg/mL; MIC [22]: 2 µg/mL; MIC [23]: 8 µg/mL; MIC [24]: > 128 µg/mL; MIC [25]: 8 µg/mL; MIC [26]: 0.25 µg/mL; MIC [27]: 8 µg/mL; MIC [28]: 128 µg/mL; MIC [29]: 0.25 µg/mL; MIC [30]: 1 µg/mL; MIC [31]: 8 µg/mL; MIC [32]: 8 µg/mL; MIC [33]: 32 µg/mL; MIC [34]: 8 µg/mL; MIC [35]: 0.5 µg/mL; MIC [36]: 64 µg/mL
CN(C)CCCNC(=N)c1ccc2cc(-c3ccc(-c4cc5ccc(C(=N)NCCCN(C)C)cc5[nH]4)cc3)[nH]c2c1,8,8,8,4,4,128,128,8,2,8,4,4,4,8,4,4,8,8,4,4,MIC [21]: 8 µg/mL; MIC [22]: 8 µg/mL; CC50 at 48 h [37]: 27.7 µg/mL; MIC [23]: 16 µg/mL; MIC [24]: 32 µg/mL; MIC [25]: 8 µg/mL; MIC [26]: 4 µg/mL; MIC [27]: 8 µg/mL; MIC [28]: 8 µg/mL; MIC [29]: 2 µg/mL; MIC [30]: 4 µg/mL; MIC [31]: 8 µg/mL; MIC [32]: 8 µg/mL; MIC [33]: 8 µg/mL; MIC [34]: 8 µg/mL; MIC [35]: 4 µg/mL; MIC [36]: 8 µg/mL
